Here are results for 9 compounds from paper PMC12913230, “Investigating the Ligand‐Binding Properties of N‐arylbenzimidazoles as Novel Elastase Inhibitors” (Chemmedchem, 2025).

Data set [1] can be described thus: Relative lipophilicity by reverse-phase TLC (RM). It is filed as physicochemical. Conditions: RP-TLC C18, acetone–water 2/1 v/v, 25 °C, RM = log[(1/RF) − 1]. On the procedure: In addition, we assessed the relative lipophilicity of the investigated compounds using the reverse‐phase thin layer chromatography (RP‐TLC), following the procedure detailed in Experimental Section. Based on retention factor (R F), we obtained the corresponding R M values for the homogenous series of compounds 1–9. The applied methodology is described in detail in the Experimental Section.
The experimental determination of relative lipophilicity was carried out using reversed‐phase thin‐layer chromatography (20 × 20 cm plates coated with C18 silica RP18 F254, E. Merck, Darmstadt, Germany). A binary solvent system consisting of acetone–water (2/1, v/v) served as the mobile phase. Compounds 1–9 were prepared in methanol to obtain a concentration of 2.0 mg/mL; from these working solutions, a volume of 0.2 μL was spotted on the plate, which was dried at 105 °C for 1 h before use. The chromatograms were developed to a distance of 10 cm from the origin in ascending TLC chambers and developed at 25 °C. After development, compound spots were visualized under UV light at 254 nm. Each determination was performed as triplicate 3 by spotting the compounds on the plate in distinct position; therefore, each RF value resulted as a mean value obtained in triplicate.

Data set [2] has as its target T1, porcine pancreatic elastase (PPE) (Sus scrofa, UniProt P00772).
T1 construct: purchased Merck Sigma Aldrich (Milano, Italy)
Nature of the data set: Elastase inhibition assay with SANA substrate. Format: biochemical. Conditions: for %I @50 μM / mode of inhibition (Lineweaver–Burk plot) / IC50: PPE; for %I @50 μM: 50 µM compound, SANA substrate, mean ± SD, n = 3; for mode of inhibition (Lineweaver–Burk plot): SANA as substrate; for IC50: SANA substrate 1.6 mM, Tris-HCl pH 8.0; for Ki: binding with the free enzyme, secondary plot of Lineweaver–Burk slopes, SANA 0.5-1.5 mM, read-out: inhibition constant (Ki). On the procedure: The inhibition mechanism was assessed using Lineweaver–Burk plot analysis.
Elastase inhibition was determined using the substrate N‐succ‐(Ala)3‐nitroanilide (SANA) as previously described.^[ [27] ^] The assay was performed in 0.1 M Tris‐HCl buffer (pH 8.0). PPE (3.3 µg mL^−1) was incubated with or without the compound for 20 min, and after incubation, the substrate (1.6 mM) was added. The release of p‐nitroaniline during cleavage of the substrate SANA by the enzyme activity was monitored at 410 nm. The control was performed with DMSO, while oleanolic acid was used as a positive control. […] The mode of inhibition on the enzyme was performed using the Lineweaver–Burk plot. Different concentrations of SANA (0.5, 0.75, 1.0, and 1.5 mM) were used for the assay. All reagents were purchased from “Merck Sigma Aldrich” (Milano, Italy).

For data set [3], the target named is T1, porcine pancreatic elastase (PPE). Set-up: method as in PMID 39456954. Conditions: PPE active site; cited from earlier work.

T1 sequence (P00772 27-266): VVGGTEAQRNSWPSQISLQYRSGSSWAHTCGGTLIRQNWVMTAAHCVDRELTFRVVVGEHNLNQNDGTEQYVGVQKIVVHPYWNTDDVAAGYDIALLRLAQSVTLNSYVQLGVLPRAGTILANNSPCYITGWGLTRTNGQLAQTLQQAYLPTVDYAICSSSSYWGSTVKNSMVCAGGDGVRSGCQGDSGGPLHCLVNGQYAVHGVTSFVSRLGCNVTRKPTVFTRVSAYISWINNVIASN

As for `Cc1cc(C)cc(Cn2c(SCC(=O)Nc3ccc(C)cc3Cl)nc3ccccc32)c1` [Compound 1, N‐(2‐chloro‐4‐methylphenyl)‐2‐[[1‐[(3,5‐dimethylphenyl)methyl]‐1H‐benzimidazol‐2‐yl]thio]acetamide], in data set [1], the “RM (relative lipophilicity)” value came to 1.023. In data set [2], the “%I @50 μM” value worked out at 30.0 ± 2.1%. Moreover, the mode of inhibition result in data set [3] is “reversible competitive inhibitor”.
`Cc1cc(C)cc(Cn2c(SCC(=O)Nc3ccccc3Cl)nc3ccccc32)c1` [Compound 2, N‐(2‐Chlorophenyl)‐2‐(1‐(3,5‐dimethylbenzyl)‐1H‐benzo[d]imidazol‐2‐ylthio)acetamide]: the “RM (relative lipophilicity)” value in data set [1] came out at 0.971. The “%I @50 μM” value in data set [2] is 29.1 ± 2.3%.
The like results for `Cc1cc(C)cc(Cn2c(SCC(=O)Nc3ccccc3Br)nc3ccccc32)c1` [Compound 3, N‐(2‐Bromophenyl)‐2‐(1‐(3,5‐dimethylbenzyl)‐1H‐benzo[d]imidazol‐2‐ylthio)acetamide] were, in that order, 0.938 and 26.5 ± 0.4%.
`Cc1cc(C)cc(Cn2c(SCC(=O)Nc3ccc(S(C)(=O)=O)cc3Cl)nc3ccccc32)c1` [Compound 4, N‐(2‐Chloro‐4‐(methylsulfonyl)phenyl)‐2‐(1‐(3,5‐dimethylbenzyl)‐1H‐benzo[d]imidazol‐2‐ylthio)acetamide]: the “RM (relative lipophilicity)” value in data set [1] worked out at 0.678. In data set [2], the “%I @50 μM” value was found to be 17.3 ± 0.7%.
Turning to `Cc1cc(C)cc(Cn2c(SCC(=O)Nc3ccc(S(N)(=O)=O)cc3Cl)nc3ccccc32)c1` [Compound 5, N‐(2‐Chloro‐4‐sulfamoylphenyl)‐2‐(1‐(3,5‐dimethylbenzyl)‐1‐benzo[d]imidazol‐2‐ylthio)acetamide], the “RM (relative lipophilicity)” value in data set [1] came to 0.558. Also, the “%I @50 μM” value in data set [2] was determined as 19.3 ± 0.9%.
A word on the IC50: it is the point on the concentration scale where inhibition reaches its midpoint. Low readings indicate inhibition by little substance, high ones a need for much substance. As usually defined, the Ki is a measure of affinity in units of concentration, obtained from inhibition or displacement. In the case of `Cc1cc(C)cc(Cn2c(SCC(=O)Nc3ccccc3Cl)nc3ccc(Cl)cc32)c1` [Compound 6, 2‐(6‐Chloro‐1‐(3,5‐dimethylbenzyl)‐1H‐benzo[d]imidazol‐2‐ylthio)‐N‐(2‐chlorophenyl)acetamide], the “RM (relative lipophilicity)” value in data set [1] is reported as 1.221. Besides, in data set [2], the “%I @50 μM” value was 57.4 ± 2.6%, the “mode of inhibition (Lineweaver–Burk plot)” value is reported as “competitive”, inhibition was half-maximal at 44.8 ± 1.4 µM (IC50) and the Ki is 25.8 µM.
Consider `Cc1cc(C)cc(Cn2c(SCC(=O)Nc3ccccc3Br)nc3ccc(Cl)cc32)c1` [Compound 7, N‐(2‐Bromophenyl)‐2‐(6‐chloro‐1‐(3,5‐dimethylbenzyl)‐1H‐benzo[d]imidazol‐2‐ylthio)acetamide], for which the “RM (relative lipophilicity)” value in data set [1] came to 1.195. Further, in data set [2], the “%I @50 μM” value came to 62.2 ± 2.1%, the “mode of inhibition (Lineweaver–Burk plot)” value is “competitive”, the IC50 came out at 41.1 ± 1.9 µM and the inhibition constant Ki was 21 µM.
With `Cc1cc(C)cc(Cn2c(SCC(=O)Nc3ccc(C)cc3Cl)nc3ccc(Cl)cc32)c1` [Compound 8, 2‐(6‐chloro‐1‐(3,5‐dimethylbenzyl)‐1H‐benzo[d]imidazol‐2‐ylthio)‐N‐(2‐chloro‐4‐methylphenyl)acetamide], in data set [1], the “RM (relative lipophilicity)” value was 1.121. Besides, the “%I @50 μM” value in data set [2] is listed as 40.6 ± 0.7%.
For `Cc1cc(C)cc(Cn2c(SCC(=O)Nc3ccc(S(C)(=O)=O)cc3Cl)nc3ccc(Cl)cc32)c1` [Compound 9, 2‐(6‐Chloro‐1‐(3,5‐dimethylbenzyl)‐1H‐benzo[d]imidazol‐2‐ylthio)‐N‐(2‐chloro‐4‐(methylsulfonyl)phenyl)acetamide] the same measures were 1.023 and 31.0 ± 0.6%.
